The source made the active and inactive calls. How the calls were made is not given here.
The compounds below were run against T-cell receptor (TCR)-CD3 interaction, human (TCR alpha chain TRAV4) (assay: potency of TCR-CD3 interaction inhibitors, dose response, biochemical, fluorescence, TAMRA-labeled TCR probe (AID 686957)). Details: TCR-CD3 binding.

IC50 | Compound
> 94.1 µM (inactive) | CCc1ccc(NC(=O)NNC(=O)c2ccc3ccccc3c2O)cc1
3.74 µM | Nc1ccc2nc3c(=O)[nH]c(=S)[nH]c3nc2c1
> 94.1 µM (inactive) | Cc1cc(C(=O)N/N=C/c2cc(Cl)cc([N+](=O)[O-])c2O)c2ccccc2n1
> 94.1 µM (inactive) | COc1cc(OC)cc(C(=O)N/N=C/c2ccc(OC)c(COc3ccc4ccccc4c3)c2)c1
6.25 µM | O=c1cc(-c2ccc(O)c(O)c2)oc2c1ccc1ccccc12
> 94 µM (inactive) | CC(=O)NNC(=S)NC(=O)c1ccc(C)cc1
> 94.1 µM (inactive) | O=C(N/N=C/c1cccc([N+](=O)[O-])c1O)c1cccs1
> 94.1 µM (inactive) | O=C(CNC(=O)c1cccc(Br)c1)N/N=C/c1cc(Br)cc(Br)c1O
> 94 µM (inactive) | O=C(NNC(=S)NC(=O)c1cccs1)c1ccc(O)cc1
> 94.1 µM (inactive) | O=C(CSc1nnc(-c2ccccc2O)n1Cc1ccccc1)NNC(=O)c1ccccc1O
> 94.1 µM (inactive) | COc1ccc(CC(=O)N/N=C/c2cc([N+](=O)[O-])cc(Br)c2O)cc1
> 94.1 µM (inactive) | Oc1c(Br)cc(Br)cc1/C=N/NC(=S)N[C@H]1CC2C=CC1C2 (stereo not given in full)
> 94.1 µM (inactive) | CN(CCC#N)C(=O)COC(=O)c1c2c(nc3ccccc13)/C(=C\c1ccco1)CC2
> 94.1 µM (inactive) | CCOc1ccc(C(=O)CCC(=O)NNC(=O)c2ccccc2O)cc1
> 94.1 µM (inactive) | COc1ccc(C(=O)C=CNNC(=O)c2ccc(Cl)cc2)cc1
> 94.1 µM (inactive) | CC(C)C(=O)Nc1ccc(C(=O)NNC(=S)NC(=O)c2ccco2)cc1
> 94.1 µM (inactive) | O=C1/C(=C/c2ccco2)SC(=S)N1c1cccnc1
> 94.1 µM (inactive) | Cc1nc(S/C(=C\c2ccc(-c3ccc(C(=O)O)c(Cl)c3)o2)C(=O)O)n[nH]1

IC50 | Compound
> 94.1 µM (inactive) | O=c1c2c(-c3ccc(Cl)cc3)csc2ncn1/N=C/c1cccc([N+](=O)[O-])c1O
> 94.1 µM (inactive) | Cc1cc(C)c(C)c(S(=O)(=O)N2CCC(C(=O)NNC(=O)c3ccccc3O)CC2)c1C
> 94.1 µM (inactive) | CCOc1ccc(NC(=O)NNC(=O)c2ccc3ccccc3c2O)cc1
inactive | c1coc(-c2ccc3nncn3c2)c1
> 94.1 µM (inactive) | O=C(O)CC(CCc1ccccc1)OC1OC(CO)C(O)C(O)C1O (stereo not given)
> 94.2 µM (inactive) | O=c1cc(-c2ccc(O)c(O)c2)oc2ccc3ccccc3c12
2.24 µM | Oc1ccc(/C=N/N=C/c2ccc(O)c(O)c2)cc1O
inactive | O=C1C=C(NCCc2cc(Br)c(O)c(Br)c2)C(=O)c2ncccc21
> 94.1 µM (inactive) | O=c1c2ccccc2nc(COc2ccccc2)n1/N=C/c1cc([N+](=O)[O-])ccc1O
> 94.1 µM (inactive) | O=C(O)c1ccccc1/C=N/NC(=O)c1cc(-c2ccco2)nc2ccccc12
> 94.1 µM (inactive) | Cc1cc(C)c2c(N)c(C(=O)NN)sc2n1
> 93.9 µM (inactive) | O=C(NNC(=O)c1ccccc1O)c1ccccc1O
> 94.1 µM (inactive) | COc1ccc(C(=O)NNC(=S)NC(=O)c2ccc(Br)o2)cc1OC
> 94.1 µM (inactive) | COc1ccc(C)cc1NC(=O)NNC(=O)c1cc2ccccc2cc1O
inactive | CN=c1scc(C)n1/N=C/c1ccc(O)c(O)c1O
> 94.1 µM (inactive) | Cc1cc(C)c(-c2cc(NC(=O)COC(=O)c3ccc(NC(=O)CC#N)cc3)n(-c3ccccc3)n2)cc1C
> 94.1 µM (inactive) | CNC(=S)N/N=C/c1cc(Br)cc(Br)c1O

From PubChem BioAssay AID686957 (The Scripps Research Institute Molecular Screening Center, 2013)
